Measured values taken from patent US8178658B2 (Dow AgroSciences, LLC, priority 2008, dated 2012).

What was measured:
[1] = test system: beet armyworm (BAW; Spodoptera exigua: Lepidoptera); assay: 96-well microtiter plate-based high throughput (HTS) diet bioassay on beet armyworm (BAW HTS); type: in vivo; details: BAW eggs, 12 μg test compound per well, mortality at 6 d post-treatment, mortality class
How it was run: (§1)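 Spodoptera exigua eggs on artificial diet in 96-well plates, surface-treated with 12 μg compound in DMSO-acetone-water; dark, 29° C, mortality at 6 d, six replicates. 128-well trays: second-instar larvae on diet treated at 50 μg/cm^2, 25° C, 14:10 light-dark, six days, mortality averaged over eight wells.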

[2] = test system: beet armyworm (BAW; Spodoptera exigua: Lepidoptera); assay: 128-well diet tray assay on beet armyworm (BAW 50); type: in vivo; details: 128-well diet tray assay; 50 μg/cm^2 of test compound on diet; second instar BAW larvae; mortality class
How it was run: as §1

[3] = 96-well microtiter plate HTS diet assay

Row | Compound | BAW HTS ([1]; 96-well HTS diet assay) | BAW HTS [1, 3] | BAW 50 ug/cm2 [2] | BAW HTS ([1]; 96-well HTS diet bioassay)
1 | CO[C@@H]1[C@@H](OC)[C@H](C)O[C@@H](OC(=O)Nc2ccc(-n3cnc(-c4ccc(C(F)(F)F)cc4)n3)cc2)[C@@H]1OC [Compound 229] | A (the compound was tested and at least 50 percent mortality was observed) | A (the compound was tested and at least 50 percent mortality was observed) | A (the compound was tested and at least 50 percent mortality was observed) | –
2 | COC1C(C)OC(ON=Cc2ccc(-c3csc(-c4ccc(C(F)(F)F)nc4)n3)cc2)C(OC)C1OC (stereo not drawn) [Compound 66] | – | A (the compound was tested and at least 50 percent mortality was observed) | A (the compound was tested and at least 50 percent mortality was observed) | A (the compound was tested and at least 50 percent mortality was observed)
3 | CCOC1C(OC)C(C)OC(ON=Cc2ccc(-c3ncc(-c4ccc(C(F)(F)F)cc4)cn3)cc2)C1OC (stereo not drawn) [Compound 151] | B (either (1) the compound was tested and less than 50 percent mortality was observed or (2) the compound was not tested) | B (either (1) the compound was tested and less than 50 percent mortality was observed or (2) the compound was not tested) | A (the compound was tested and at least 50 percent mortality was observed) | –
